The text below walks through data of ChEMBL document CHEMBL2396537, “Orally active opioid compounds from a non-poppy source” (J Med Chem, 2013).

One data set concerns Rattus norvegicus. In words: Inhibition of gastrointestinal transit of charcoal meal in rat at 55.2 mg/kg, po. The class given is organism-based. Further details: dose 55.2 mg/kg, route oral. Conditions: in vivo.
The test system of data set [1] is Mus musculus. The experiment in a line: Antinociceptive activity in ddY mouse assessed as tolerance level at 10 mg/kg, sc bid measured on day 5 by tail-flick test. The class given is functional.
Data set [2] is filed under the species Cavia porcellus. The experiment in a line: Agonist activity at opioid receptor in guinea pig ileum assessed as inhibition of electrically-induced twitch at 100 pM to 30 uM relative to morphine. In kind it is tissue-based.
Data set [3] deals with Kappa-type opioid receptor (Homo sapiens, UniProt P41145). The experiment in a line: Binding affinity to kappa opioid receptor (unknown origin).
Chain of Kappa-type opioid receptor (Homo sapiens, UniProt P41145) (P41145 whole entry): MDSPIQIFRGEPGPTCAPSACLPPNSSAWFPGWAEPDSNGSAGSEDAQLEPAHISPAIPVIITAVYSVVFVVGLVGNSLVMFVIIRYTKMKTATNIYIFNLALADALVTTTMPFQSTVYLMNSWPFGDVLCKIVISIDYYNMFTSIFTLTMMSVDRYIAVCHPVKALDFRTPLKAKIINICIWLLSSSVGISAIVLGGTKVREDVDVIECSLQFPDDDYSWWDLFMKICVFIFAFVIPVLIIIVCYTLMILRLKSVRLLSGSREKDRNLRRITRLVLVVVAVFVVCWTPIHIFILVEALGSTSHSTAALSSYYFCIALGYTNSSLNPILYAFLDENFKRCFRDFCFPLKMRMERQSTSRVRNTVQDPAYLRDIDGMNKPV
Data set [4] addresses Mu-type opioid receptor (Homo sapiens, UniProt P35372). In words: Binding affinity to mu opioid receptor (unknown origin).
Data set [5] is described as follows: Binding affinity to delta opioid receptor (unknown origin).
In data set [6] the target is T1, Kappa-type opioid receptor (Cavia porcellus, UniProt P41144). In words: Displacement of [3H]U-69593 from kappa opoid receptor in Dunkin-Hartley guinea pig brain after 1 hr by liquid scintillation spectrometry. In general terms: In a radioligand displacement assay an active substance lowers the binding of a labelled ligand.
T1 sequence (P41144 whole entry): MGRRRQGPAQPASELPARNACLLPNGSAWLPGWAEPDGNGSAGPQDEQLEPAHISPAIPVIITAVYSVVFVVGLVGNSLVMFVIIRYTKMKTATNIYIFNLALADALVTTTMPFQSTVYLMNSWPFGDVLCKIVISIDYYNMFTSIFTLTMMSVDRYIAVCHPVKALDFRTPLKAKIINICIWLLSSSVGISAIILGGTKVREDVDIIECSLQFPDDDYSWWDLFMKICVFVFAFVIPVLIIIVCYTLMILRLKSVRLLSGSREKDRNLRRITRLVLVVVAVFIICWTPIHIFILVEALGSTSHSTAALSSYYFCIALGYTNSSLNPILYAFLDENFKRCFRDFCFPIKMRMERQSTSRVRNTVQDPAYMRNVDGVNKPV
Data set [7] deals with Mus musculus. The experiment in a line: Antinociceptive activity in mouse at 92 mg/kg, po by hot plate test. In kind it is functional. In general terms: In hot-plate and tail-flick tests a longer latency is read as antinociception.
The species named for data set [8] is Cavia porcellus. In words: Selectivity ratio of Ki for mu opioid receptor in Dunkin-Hartley guinea pig brain over Ki for delta opioid receptor in Dunkin-Hartley guinea pig brain.
The nature of data set [9]: Displacement of [3H]DPDPE from delta opoid receptor in Dunkin-Hartley guinea pig brain after 2 hrs by liquid scintillation spectrometry. Also noted: species or system Cavia porcellus.
Data set [10] is described as follows: Displacement of [3H]DPDPE from guinea pig brain delta opoid receptor after 4 hrs by liquid scintillation counting analysis. Further details: species or system Cavia porcellus.
Data set [11] addresses T2, Mu-type opioid receptor (Cavia porcellus, UniProt P97266). In words: Displacement of [3H]DAMGO from mu opoid receptor in Dunkin-Hartley guinea pig brain after 1.5 hrs by liquid scintillation spectrometry.
Data set [12] concerns the target T2, Mu-type opioid receptor. The experiment in a line: Displacement of [3H]DAMGO from guinea pig brain mu opoid receptor after 3 hrs by liquid scintillation counting analysis.
Data set [13] addresses T1, Kappa-type opioid receptor. The experiment in a line: Displacement of [3H]U-69,593 from guinea pig brain kappa opoid receptor after 1 hr by liquid scintillation counting analysis.

Molecules are shown by their SMILES. Activity calls are given as the source filed them. The rule behind the calls is not given here.

Chain of Mu-type opioid receptor (Homo sapiens, UniProt P35372) (P35372 whole entry): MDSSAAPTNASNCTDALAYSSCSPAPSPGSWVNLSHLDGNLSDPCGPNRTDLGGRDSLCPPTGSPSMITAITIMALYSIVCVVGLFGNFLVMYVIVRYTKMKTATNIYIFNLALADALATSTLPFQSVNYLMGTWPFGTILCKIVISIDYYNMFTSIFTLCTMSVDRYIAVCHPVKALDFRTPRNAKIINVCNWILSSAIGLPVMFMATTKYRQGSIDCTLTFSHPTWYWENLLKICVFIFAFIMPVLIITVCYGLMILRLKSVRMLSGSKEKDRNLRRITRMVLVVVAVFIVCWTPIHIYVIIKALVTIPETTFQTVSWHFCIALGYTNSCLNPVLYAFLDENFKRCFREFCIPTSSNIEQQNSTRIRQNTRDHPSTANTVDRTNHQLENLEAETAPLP
T2 sequence (P97266 whole entry): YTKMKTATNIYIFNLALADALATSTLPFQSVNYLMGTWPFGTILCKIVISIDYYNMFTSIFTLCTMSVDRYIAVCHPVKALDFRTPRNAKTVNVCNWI

For the compound `CN1CC[C@]23c4c5ccc(O)c4O[C@H]2[C@@H](O)C=C[C@H]3[C@H]1C5` [MORPHINE], the “inhibition (INH)” value with Rattus norvegicus is recorded as 70%. For the same compound, the Activity in the data set with Mus musculus [1] (route subcutaneous) is 100%.

`CC[C@@H]1CN2CC[C@@]3(OC)C(=Nc4cccc(OC)c43)[C@@H]2C[C@@H]1/C(=C\OC)C(=O)OC`: in the data set listed under Cavia porcellus [2], the Efficacy stood at 70% and the inhibition worked out at 19%.

On to `CC[C@@H]1CN2CC[C@@]34OCCO[C@@]3(Nc3ccc(F)c(OC)c34)[C@@H]2C[C@@H]1/C(=C\OC)C(=O)OC`, for which the Ki (in [3]; at Mu-type opioid receptor [4]) was 7 nM throughout.

With `CC[C@@H]1CN2CCc3c([nH]c4cccc(O)c34)[C@@H]2C[C@@H]1/C(=C\OC)C(=O)OC`, in the data set filed under Cavia porcellus [2], the Efficacy came out at 57% and the inhibition worked out at 41%.

`CCO[C@]12CCN3C[C@@H](CC)[C@@H](/C(=C\OC)C(=O)OC)C[C@H]3C1=Nc1cccc(OC)c12`: in the data set filed under Cavia porcellus [2], the Efficacy amounted to 26% and the inhibition came out at 1%.

`CC[C@@H]1CN2CC[C@@]3(OC(C)=O)C(=Nc4cccc(OC)c43)[C@@H]2C[C@@H]1/C(=C\OC)C(=O)OC`: in the data set listed under Cavia porcellus [2], the Efficacy came to 15% and the inhibition was found to be 21%.

Take `CC[C@@H]1CN2CC[C@]3(Nc4cccc(OC)c4C3=O)[C@@H]2C[C@@H]1/C(=C\OC)C(=O)OC`: the values for the inhibition constant (Ki) (in data set [3]; in data set [5]; on Mu-type opioid receptor [4]) were 79 nM, 3 nM and 0.01 nM, respectively.

As for `CC[C@@H]1CN2CCc3c([nH]c4cccc(OC(C)=O)c34)[C@@H]2C[C@@H]1/C(=C\OC)C(=O)OC`, in the data set listed under Cavia porcellus [2], the Efficacy was 38% and the inhibition was determined as 2%.

Take `COc1ccc2c3c1O[C@H]1[C@@H](O)C=C[C@H]4[C@@H](C2)N(C)CC[C@@]341` [CODEINE]: the “inhibition (INH)” value with Rattus norvegicus is on record as 70%.

As to `CC[C@@H]1CN2CCc3c([nH]c4cccc(OC)c34)[C@@H]2C[C@@H]1/C(=C\OC)C(=O)OC`, the Ki is greater than 1000 nM in data set [6] and 60 nM in [9]. For the same compound, in the data set on Rattus norvegicus, the “inhibition (INH)” value worked out at 18%. For the same compound, the Efficacy in the data set listed under Cavia porcellus [2] is 95%. In addition, the inhibition in the data set listed under Cavia porcellus [2] was 26%. Also, the Activity in the data set with Mus musculus [7] is 100%. Further, in the data set filed under Cavia porcellus [8], the Ratio Ki worked out at 10.

With `CC[C@@H]1CN2CC[C@@]3(O)C(=Nc4cccc(OC)c43)[C@@H]2C[C@@H]1/C(=C\OC)C(=O)OC`, the inhibitory constant (Ki) in data set [10] came out at 145 nM; at Mu-type opioid receptor [11], 13 nM; on Mu-type opioid receptor [12] it was 9.8 nM; in data set [13] it was 195 nM; in data set [9] it was 155 nM. The Efficacy in the data set listed under Cavia porcellus [2] was 99%. In addition, the outcome with Mus musculus [1] was Active. Besides, in the data set listed under Cavia porcellus [8], the Ratio Ki was greater than 10.

In general, inhibition refers to the share of the control response that was lost under treatment. The term Ki denotes a dissociation constant, usually derived from enzyme kinetics or from competition with a known ligand.
